Measurements from patent US11141411B2, “Methods of treating neurological, metabolic, and other disorders using enantiopure deuterium-enriched pioglitazone” (Poxel SA, priority 2014, dated 2021).

Tests used:
db/db mice = experiment: db/db mouse model of type II diabetes, 10-day daily oral dosing; format: in vivo; details: daily oral gavage 10 days, h-rac-pio 30 mg/kg, vs. vehicle; for decrease of inflammatory biomarker IL-6 / decrease of inflammatory biomarker TNF-α: d-R-pio 20 mg/kg; for adiponectin: d-S-pio 20 mg/kg
Method: Body weights were measured throughout the study. Non-fasting blood glucose (10 μL by tail snip) was measured 4 hours prior to first dose, and animals were sorted and assigned to groups based on this measure. […] A terminal blood sample was collected for determination of serum levels of cholesterol, triglycerides, free fatty acids, adiponectin, serum amyloid A, and cytokines IL-6, TNF-α, and MCP-1, using standard analytical methods. Quantitative results were analyzed by statistical methods using, as appropriate, one- or two-way ANOVA or Kruskal-Wallis tests for differences followed by Sidak's, Dunnett's, or Dunn's post-test to determine differences vs. vehicle-treated control animals. All graphs were generated with GraphPad Prism version 6.0.2 (GraphPad Software, Inc., La Jolla, Calif.).

[1] = Body weight gain in male C57BL/6J mice on a standard diet; format: in vivo, mouse; details: twice daily oral gavage 11 days, overall daily dose h-rac-pio 30 mg/kg, d-S-pio 15 mg/kg, d-R-pio 15 mg/kg, vs. vehicle
Method: Male C57BL/6J mice (about 28 g body weight) were acclimated singly-housed for one week to a reverse light/dark cycle with free access to water and standard maintenance diet. Animals were then handled daily for one week followed by another 7 days of twice daily dosing with vehicle (0.5% methylcellulose in water) by oral gavage. […] Body weights were measured twice daily, prior to each dosing, to adjust individual dosing volumes to actual body weights.

[2] = Pharmacokinetics in male C57BL/6 mice, oral gavage once a day for 5 days; details: day 5, d-S-pio or d-R-pio 15 mg/kg oral gavage daily; for t1/2 d-S: elimination half-life of analyte d-S-pio; for t1/2 h-R: elimination half-life of analyte h-R-pio; for t1/2 h-R / t1/2 h-S: h-rac-pio 30 mg/kg; for t1/2 h-S: elimination half-life of analyte h-S-pio
Method: Animals were then euthanized. Plasma was separated by centrifugation and stored at −80° C. until analyzed.
Concentrations were calculated by interpolation on standard curves generated from mouse plasma samples spiked with known concentrations of the pure analytes.

Row | Structure (SMILES) | decrease of inflammatory biomarker IL-6 (db/db mice) | decrease of inflammatory biomarker TNF-α (db/db mice) | adiponectin (db/db mice) | insulin (db/db mice) | percent body weight difference versus day 1 body weight [1] | t1/2 d-S [2] [h] | t1/2 h-R [2] [h] | t1/2 h-S [2] [h]
1 | CCc1ccc(CCOc2ccc(CC3SC(=O)NC3=O)cc2)nc1 (racemic) [h-rac-pio, rac-5-({p-[2-(5-Ethyl-2-pyridyl)ethoxy]phenyl}methyl)-1,3-thiazolidine-2,4-dione] | trending | trending | significantly increased adiponectin | significantly decreased insulin | statistically significant increase in percent body weight difference compared to dosing with vehicle |  |  | 
2 | [2H][C@]1(Cc2ccc(OCCc3ccc(CC)cn3)cc2)SC(=O)NC1=O [d-R-pio, (R)-5-({p-[2-(5-ethyl-2-pyridyl)ethoxy]phenyl}methyl)-(5-^2H)-1,3-thiazolidine-2,4-dione] | trending | trending |  |  | did not increase percent body weight difference over vehicle | 0.8 | 2.5 | 2.5
3 | [2H][C@@]1(Cc2ccc(OCCc3ccc(CC)cn3)cc2)SC(=O)NC1=O [d-S-pio, (S)-5-({p-[2-(5-Ethyl-2-pyridyl)ethoxy]phenyl}methyl)-(5-^2H)-1,3-thiazolidine-2,4-dione] |  |  | significantly increased adiponectin |  | statistically significant increase in percent body weight difference compared to dosing with vehicle | 2.3 | 3.2 | 3.1
